From patent US20120149718A1, “Amido Compounds” (priority 2010, published 2012) come the findings set out here.

For one data set, the target named is T1, human P2X7 (Homo sapiens, UniProt Q99572).
T1 construct: 1321N1 cells stably expressing the full length human P2X7 gene (1321N1-hP2X7)
T1 sequence (Q99572 1-595): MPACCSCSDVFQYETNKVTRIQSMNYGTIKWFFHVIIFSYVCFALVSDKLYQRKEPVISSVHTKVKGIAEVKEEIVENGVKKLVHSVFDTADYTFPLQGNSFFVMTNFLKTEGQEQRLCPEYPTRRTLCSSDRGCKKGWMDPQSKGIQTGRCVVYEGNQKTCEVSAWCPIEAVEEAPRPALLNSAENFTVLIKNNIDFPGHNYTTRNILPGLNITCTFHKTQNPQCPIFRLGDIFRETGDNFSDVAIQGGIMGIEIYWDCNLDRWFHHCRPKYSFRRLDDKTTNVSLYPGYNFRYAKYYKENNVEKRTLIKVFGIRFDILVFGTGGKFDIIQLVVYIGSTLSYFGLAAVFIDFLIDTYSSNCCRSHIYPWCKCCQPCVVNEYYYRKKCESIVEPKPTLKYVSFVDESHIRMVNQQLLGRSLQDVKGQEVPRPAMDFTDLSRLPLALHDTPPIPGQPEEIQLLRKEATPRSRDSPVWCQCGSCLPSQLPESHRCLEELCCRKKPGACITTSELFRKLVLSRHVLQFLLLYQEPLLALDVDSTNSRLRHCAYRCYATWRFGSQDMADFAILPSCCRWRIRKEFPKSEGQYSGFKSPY
The data set is described as follows: Intracellular Calcium Flux (FLIPR) Assay. The format is cell-based. The note with it: 1321N1 cells stably expressing full length human P2X7; agonist 100 μM BzATP; fluo-3 calcium flux; read-out: FLIPR pIC50 hP2X7-1321n1 (converted). The protocol: Stock solutions of compounds were prepared from powders as a 10 mM DMSO stock solution. These solutions were stored at RT during the two week period of these experiments to prevent freeze-thaw of the DMSO stocks. The DMSO stocks were added to the appropriate assay buffer at a concentration of 10 μM, and then diluted serially to the final concentrations that were tested. No observable precipitate was formed at any time during this process. The aqueous solutions of compounds as well as ATP (Sigma A7699) and BzATP (Sigma B6396) were prepared fresh for each day of experiment.
1321N1 cells stably expressing the full length human P2X7 gene (1321N1-hP2X7) and HEK293 cells stably expressing the full length rat P2X7 gene (HEK293-rP2X7) were obtained from the Roche Cell Culture Facility. 1321N1-hP2X7 cells were grown in Dulbecco's Modified Eagle's Medium (DMEM) high glucose supplemented with 10% FBS and 250 μg/mL G418. HEK293-rP2X7 cells were grown in DMEM/F-12 supplemented with 10% FBS, 1 mM CaCl2, 2 mM MgCl2, 2 mM L-Glutamine and 500 μg/ml G418. Cells were split such that they never became >70% confluent.
On the day prior to the experiment, 1321N1-hP2X7 or HEK293-rP2X7 cells were released into suspension with calcium-free PBS+Versene and washed by centrifugation with calcium-free PBS to remove the Versene. Cells were resuspended in growth medium at a density of 2.5×10^5 cells/mL and seeded into black walled, clear bottom 96 well plates (50,000 cells/well) approximately 18 hr prior to intracellular calcium flux experiments.
On the day of the experiment, plates were washed with FLIPR buffer (calcium- and magnesium-free Hank's Balanced Salt Solution (HBSS) supplemented with 10 mM Hepes, 2.5 mM probenecid and 2 mM calcium chloride) using a BIO-TEK 96 channel plate washer and incubated with […] fluo-3 dye at 37° C. for one hr. The dye was then removed by plate washing and the cells were allowed to equilibrate for 20 min at room temperature with antagonist or vehicle (FLIPR buffer). Agonist (100 μM BzATP final concentration for hP2X7; 5 μM BzATP final concentration or rP2X7) was added online with the FLIPR and fluorescence measurements made at 1 sec intervals for 60 sec followed by 3 sec intervals for a further 4 min (5 min total). A final addition of 5 μM ionomycin was made and the maximal BzATP-evoked fluorescence normalized to the maximal ionomycin-evoked fluorescence.

`CS(=O)(=O)c1ccc(C(Cc2ccc(F)cc2)C(=O)Nc2nc3ccc(CO)cc3o2)cc1` (centres unmarked) [Compound I-20, 3-(4-Fluoro-phenyl)-N-(6-hydroxymethyl-benzooxazol-2-yl)-2-(4-methanesulfonyl-phenyl)-propionamide]: the melting point (commonly the temperature, or range, at which the solid turns liquid) is 128 to 130 °C. In addition, on human P2X7, the IC50 is 20.4 nM. The matching figures for `CSc1cnc(NC(=O)C(Cc2ccc(F)cc2)c2ccc(S(C)(=O)=O)cc2)cn1` (centres unmarked) [Compound I-14, 3-(4-Fluoro-phenyl)-2-(4-methanesulfonyl-phenyl)-N-(5-methylsulfanyl-pyrazin-2-yl)-propionamide]: 187.7 to 188.4 °C and 1120 nM.

For the molecule `Cc1ccccc1CC(C(=O)Nc1nc2ccccc2o1)c1ccc(S(C)(=O)=O)cc1` (centres unmarked) [Compound I-2, N-Benzooxazol-2-yl-2-(4-methanesulfonyl-phenyl)-3-o-tolyl-propionamide], the melting point lay within 105.7 to 108.9 °C. The IC50 at human P2X7 is 302 nM. The matching figures for `CS(=O)(=O)c1ccc(C(Cc2ccc(F)cc2)C(=O)Nc2nc3ccccc3o2)cc1` (centres unmarked) [Compound I-7, N-Benzooxazol-2-yl-3-(4-fluoro-phenyl)-2-(4-methanesulfonyl-phenyl)-propionamide]: 109 to 110 °C and 63.1 nM. In turn, `COc1ccc(CC(C(=O)Nc2nc3ccccc3o2)c2ccc(S(C)(=O)=O)cc2)cc1` (centres unmarked) [Compound I-9, N-Benzooxazol-2-yl-2-(4-methanesulfonyl-phenyl)-3-(4-methoxy-phenyl)-propionamide] had a melting point of 101.9 to 105.9 °C. Further, at human P2X7, the IC50 is 229 nM.

`CCOC(=O)c1ccc(C(Cc2ccc(F)cc2)C(=O)Nc2nc3ccccc3o2)cc1` (centres unmarked) [Compound I-30, 4-[1-(Benzooxazol-2-ylcarbamoyl)-2-(4-fluoro-phenyl)-ethyl]-benzoic acid ethyl ester] yielded a melting point of 122 to 125 °C. For the same molecule, the IC50 at human P2X7 is 457 nM. Molecule `CCOCc1cnc(NC(=O)C(Cc2ccc(F)cc2)c2ccc(S(C)(=O)=O)cc2)cn1` (centres unmarked) [Compound I-22, N-(5-Ethoxymethyl-pyrazin-2-yl)-3-(4-fluoro-phenyl)-2-(4-methanesulfonyl-phenyl)-propionamide] displayed a melting point of 99 to 100 °C. The IC50 on human P2X7 is 741 nM.

The molecule `CS(=O)(=O)c1ccc(C(Cc2ccccc2)C(=O)Nc2nc3ccccc3o2)cc1` (centres unmarked) [Compound I-4, N-Benzooxazol-2-yl-2-(4-methanesulfonyl-phenyl)-3-phenyl-propionamide] gave a melting point of 118 to 119 °C. Also, the IC50 on human P2X7 is 81.3 nM. Molecule `CN(C)CCNC(=O)c1ccc(C(Cc2ccc(F)cc2)C(=O)Nc2nc3ccccc3o2)cc1` (centres unmarked) [Compound I-34, 4-[1-(Benzooxazol-2-ylcarbamoyl)-2-(4-fluoro-phenyl)-ethyl]-N-(2-dimethylamino-ethyl)-benzamide] returned a melting point of 149 to 151 °C. In addition, the IC50 at human P2X7 was 389 nM. For `CS(=O)(=O)c1ccc(C(Cc2ccc(F)cc2Cl)C(=O)Nc2nc3ccccc3o2)cc1` (centres unmarked) [Compound I-6, N-Benzooxazol-2-yl-3-(2-chloro-4-fluoro-phenyl)-2-(4-methanesulfonyl-phenyl)-propionamide], the melting point is 127 to 128 °C. Moreover, the IC50 at human P2X7 was 794 nM. The matching figures for `CCOC(=O)c1cnc(NC(=O)C(Cc2ccc(F)cc2)c2ccc(S(C)(=O)=O)cc2)cn1` (centres unmarked) [Compound I-15, 5-[3-(4-Fluoro-phenyl)-2-(4-methanesulfonyl-phenyl)-propionylamino]-pyrazine-2-carboxylic acid ethyl ester]: 106 to 107 °C and 224 nM. In turn, `CC(C)(O)c1ccc(C(Cc2ccc(F)cc2)C(=O)Nc2nc3ccccc3o2)cc1` (centres unmarked) [Compound I-31, N-Benzooxazol-2-yl-3-(4-fluoro-phenyl)-2-[4-(1-hydroxy-1-methyl-ethyl)-phenyl]-propionamide] gave a melting point of 87 to 90 °C. The IC50 on human P2X7 is 282 nM.

`Cc1ccccc1CC(C(=O)Nc1nc2cc(Cl)ccc2o1)c1ccc(S(C)(=O)=O)cc1` (centres unmarked) [Compound I-3, N-(5-Chloro-benzooxazol-2-yl)-2-(4-methanesulfonyl-phenyl)-3-o-tolyl-propionamide] registered a melting point of 184 to 185 °C. For the same molecule, at human P2X7, the IC50 was 1170 nM. Molecule `CS(=O)(=O)c1ccc(C(Cc2ccccc2F)C(=O)Nc2nc3ccccc3o2)cc1` (centres unmarked) [Compound I-8, N-Benzooxazol-2-yl-3-(2-fluoro-phenyl)-2-(4-methanesulfonyl-phenyl)-propionamide] came in with a melting point of 99 to 100 °C. The IC50 at human P2X7 was 87.1 nM.

As for `NC(=O)c1ccc(C(Cc2ccc(F)cc2)C(=O)Nc2nc3ccccc3o2)cc1` (centres unmarked) [Compound I-32, 4-[1-(Benzooxazol-2-ylcarbamoyl)-2-(4-fluoro-phenyl)-ethyl]-benzamide], the melting point fell in the range of 137 to 139 °C. In addition, on human P2X7, the IC50 is 20.4 nM. In the case of `CS(=O)(=O)c1ccc(C(Cc2ccccc2Cl)C(=O)Nc2nc3ccccc3o2)cc1` (centres unmarked) [Compound I-5, N-Benzooxazol-2-yl-3-(2-chloro-phenyl)-2-(4-methanesulfonyl-phenyl)-propionamide], the melting point lay in the range of 107 to 108 °C. Further, the IC50 at human P2X7 was 537 nM.

In turn, `Cc1ccccc1CC(C(=O)Nc1cnc(Br)cn1)c1ccc(S(C)(=O)=O)cc1` (centres unmarked) [Compound I-1, N-(5-Bromo-pyrazin-2-yl)-2-(4-methanesulfonyl-phenyl)-3-o-tolyl-propionamide] gave a melting point of 193.5 to 194.8 °C. Besides, the IC50 on human P2X7 is 389 nM.

As for `Cc1cnc(NC(=O)C(Cc2ccc(F)cc2)c2ccc(S(C)(=O)=O)cc2)cn1` (centres unmarked) [Compound I-19, 3-(4-Fluoro-phenyl)-2-(4-methanesulfonyl-phenyl)-N-(5-methyl-pyrazin-2-yl)-propionamide], the melting point is 172.4 to 175.3 °C. On human P2X7, the IC50 was 708 nM.

In the case of `CS(=O)(=O)c1ccc(C(Cc2ccc(F)cc2)C(=O)Nc2nc3cc(S(=O)(=O)N4CCCC4)ccc3o2)cc1` (centres unmarked) [Compound I-47, 3-(4-Fluoro-phenyl)-2-(4-methanesulfonyl-phenyl)-N-[5-(pyrrolidine-1-sulfonyl)-benzooxazol-2-yl]-propionamide], the IC50 at human P2X7 is 170 nM. On the same count and under the same terms, with `CN(Cc1ccccc1)Cc1cnc(NC(=O)C(Cc2ccc(F)cc2)c2ccc(S(C)(=O)=O)cc2)cn1` (centres unmarked) [Compound I-24, N-{5-[(Benzyl-methyl-amino)-methyl]-pyrazin-2-yl}-3-(4-fluoro-phenyl)-2-(4-methanesulfonyl-phenyl)-propionamide] the figure was 1050 nM; with `CS(=O)(=O)c1ccc(C(Cc2ccncc2)C(=O)Nc2nc3ccccc3o2)cc1` (centres unmarked) [Compound I-55, N-Benzooxazol-2-yl-2-(4-methanesulfonyl-phenyl)-3-pyridin-4-yl-propionamide], 661 nM. Regarding `CS(=O)(=O)c1ccc([C@H](Cc2ccc(F)cc2)C(=O)Nc2cnc(CO)cn2)cc1` [Compound I-50b, (S)-3-(4-Fluoro-phenyl)-N-(5-hydroxymethyl-pyrazin-2-yl)-2-(4-methanesulfonyl-phenyl)-propionamide], the IC50 on human P2X7 is above 10000 nM. On the same count and under the same terms, then `Cc1ccccc1C[C@@H](C(=O)Nc1nc2ccccc2o1)c1ccc(S(C)(=O)=O)cc1` [Compound I-11, (R)—N-Benzooxazol-2-yl-2-(4-methanesulfonyl-phenyl)-3-o-tolyl-propionamide], with 81.3 nM.
